Experimental data: PubChem BioAssay AID1288 (Columbia University Molecular Screening Center, 2008)
Activity calls are given as the source filed them. How the calls were made is not given here.

What was measured:
[1] = inhibitors of TNFa-induced E-selectin expression, confirmation, imaging, retest plus dose response, cell count (AID 1288); conditions: human endothelial cells, TNFa-induced E-selectin, imaging; for cell count: cell count toxicity, at 10 µM, stronger effect = lower value; for inhibition: at 2 µM, stronger effect = higher value;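 on inhibition: 0% = stimulated vehicle wells and 100% = unstimulated vehicle wells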
[2] = tested on: human endothelial cells, TNFa-induced E-selectin, imaging; assay: as above

SMILES | cell count [1] [%] | IC50 [2] | inhibition [1]
O=C(CS(=O)c1ccc(C(F)(F)F)cc1[N+](=O)[O-])Oc1ccccc1 (configuration not stated) | 88.5 | > 10 µM (inactive) | 
COCC(C)NC(=O)CCS(=O)(=O)c1nc(-c2ccc(OC)cc2)cc(C(F)(F)F)n1 (configuration not stated) | 83 | > 10 µM (inactive) | 
CCOC(=O)/C=C/S(=O)(=O)c1ccc(NC(C)=O)cc1 | 6.27 | 1.39 µM | 
O=C(Cn1ncc(Cl)c(Cl)c1=O)N1CCc2ccccc21 | 40 | 2.48 µM | 
CN1C2CCC1/C(=C/c1ccccn1)C(=O)/C2=C\c1ccccn1 | 51.6 | 2.8 µM | 
C#CC(=O)N(c1cccc(OC)c1)C(C(=O)NC1CCCC1)c1cccs1 (configuration not stated) | 90 | > 10 µM (inactive) | 
C=C1C(=O)[C@@]23[C@H](O)C[C@@H]4C(C)(C)CC[C@H](O)[C@@]4(C)[C@@H]2CC[C@@H]1[C@H]3O | 10.1 | 2 µM | 
N#Cc1ccc(-c2cccnc2)nc1SCc1ccc(Cl)c(Cl)c1 | 2.48 | 2.75 µM | 
CCOC(=O)CS(=O)(=O)c1nc(-c2ccccc2)cc(C(F)(F)F)n1 | 106 | > 10 µM (inactive) | 
COc1ccc(NC(=O)/C(Cl)=C(/Cl)S(=O)(=O)Cc2ccc(C)cc2)cn1 | 89.6 | > 10 µM (inactive) | 
COCCN(CC(=O)NC1CCCCC1)C(=O)/C=C/C(=O)c1ccc(OC)cc1O | 95 | > 10 µM (inactive) | 
CCc1c(C)c(C#N)c2nc3ccccc3n2c1Cl | 70 | 1.98 µM | 
Cc1nc2scc(-c3ccccc3)c2c(=O)n1N=C1C=CC(=O)C=C1 | 92.3 | > 10 µM (inactive) | 
CC(C)(C)C(=O)/C(=C\c1cccc([N+](=O)[O-])c1)n1cncn1 | 23.9 | 3.04 µM | 
COc1ccc(CS(=O)(=O)/C(Cl)=C(/Cl)C(=O)Nc2ccc(OC)nc2)cc1 | 105 | > 10 µM (inactive) | 
Cc1cc(C)cc(NC(=O)c2ccc([N+](=O)[O-])o2)c1 | 98.3 | 2.11 µM | 
COC(=O)/C=C/S(=O)(=O)c1ccc(NC(C)=O)cc1 | 106 | > 10 µM (inactive) | 
CCN1C/C(=C/c2ccc(OC)c(O)c2)C(=O)/C(=C/c2ccc(OC)c(O)c2)C1 | 15.1 | 3.01 µM | 
Cc1cc2cc(C=C(C#N)C#N)c(Cl)nc2cc1C | 4.88 | 2.39 µM | 
CN(C)c1nc(C=C(C#N)C#N)c(Cl)n1-c1ccc(F)cc1 | 46.6 | 1.74 µM | 
O=C(Nc1ccc2oc(-c3cccnc3)nc2c1)c1ccc([N+](=O)[O-])o1 | 54.4 | 2.73 µM | 

SMILES | cell count [1] [%] | IC50 [2] | inhibition [1]
COc1cc(NC(=O)Cn2ncc(Cl)c(Cl)c2=O)c(C)cc1[N+](=O)[O-] | 90.1 | > 10 µM (inactive) | 
O=C(OCn1ncc(Br)c(Br)c1=O)c1ccc(F)cc1 | 53.9 | > 10 µM (inactive) | 
CCc1ccc(N2C(=O)NC(=O)/C(=C/c3cccn3CCOc3ccc(C(C)CC)cc3)C2=O)cc1 (configuration not stated) | 17.9 | 1.37 µM | 
C#CC(=O)N(c1cc(OC)ccc1OC)C(C(=O)NC1CCCC1)c1cccs1 (configuration not stated) | 33.9 | 9.61 µM | 
O=Cc1s/c(=N\S(=O)(=O)c2ccccc2)n(CCCCl)c1Cl | 108 | > 10 µM (inactive) | 
CCOC(=O)CS(=O)(=O)c1nc(-c2ccc(F)cc2)cc(C(F)(F)F)n1 | 98.3 | > 10 µM (inactive) | 
O=C(OCn1ncc(Cl)c(Cl)c1=O)c1ccccc1Cl | 45.3 | > 10 µM (inactive) | 
COc1ccc(-c2nnc(SCC(=O)N3CCOCC3)o2)cc1OC | 18.5 | 4.05 µM | 
CN(CCC#N)C(=O)COC(=O)c1ccccc1C(=O)c1ccc(Cl)c([N+](=O)[O-])c1 | 15.6 | 1.37 µM | 
COc1cccc(N2CCN(c3ncnc4c3[nH]c3ccc(F)cc34)CC2C)c1 (configuration not stated) | 40.9 | 1.41 µM | 
O=C(NCCC1=CCCCC1)c1coc(=O)c(Br)c1 | 1.14 | 2.77 µM | 
O=C(Nc1ccccc1)c1nnsc1S(=O)c1ccc(Cl)cc1 (configuration not stated) | 16.1 | 3.58 µM | 
Cc1c(Nc2cc(Cl)c3nonc3c2[N+](=O)[O-])c(=O)n(-c2ccccc2)n1C | 66.3 | 6.67 µM | 
CC(C)(C)C(=O)/C(=C\c1ccc([N+](=O)[O-])cc1)n1cncn1 | 94.9 | > 10 µM (inactive) | 
CC(C)(C)C1=CC(=O)C(=O)C(C(C)(C)C)=C1 | 95 | > 10 µM (inactive) | 
CS(=O)(=O)c1ccc(S(=O)CC(=O)OCc2ccccc2)c([N+](=O)[O-])c1 (configuration not stated) | 98.7 | > 10 µM (inactive) | 
N#CC(C#N)=C1C=CC=CN1/C(=C\c1ccccc1Cl)C(=O)c1ccccc1 | 68.3 | 4.99 µM | 
CC(C)(C)C(=O)/C(=C/c1cccc([N+](=O)[O-])c1)n1cncn1 | 101 | > 10 µM (inactive) | 
Cc1ccc2nc(-c3ccc(NC(=O)CCN4C(=O)c5ccccc5C4=O)cc3)sc2c1 | 107 | > 10 µM (inactive) | 
COC(=O)C1CN(C#N)N(c2ccc(Cl)cc2)C12c1ccccc1-c1ccccc12 (configuration not stated) | 113 | > 10 µM (inactive) | 
O=C(O)CSc1nnc(-c2ccncc2)n1CCc1ccccc1 |  |  | 28.9% (inactive)

SMILES | cell count [1] [%] | IC50 [2] | inhibition [1]
COc1ccc(C2CC(O)(C(C)(C)O)NO2)cc1 (configuration not stated) |  |  | -4.94% (inactive)
O=C(COc1ccc(-c2nnco2)cc1)NCc1ccccc1Cl |  |  | 10.1% (inactive)
COc1ccc(-c2cc(C)nc(SCc3cccc(C(=O)O)c3)n2)cc1 |  |  | 16.2% (inactive)
O=C1CC(c2ccccc2)CC2=C1CN(C1CCCCC1)CN2 (configuration not stated) |  |  | 10.2% (inactive)
Nc1ccc2c(c1)N1CCN=C1S2 |  |  | 11.1% (inactive)
CN1CCN(S(=O)(=O)c2ccc(NC(=O)c3ccc(F)cc3)cc2)CC1 |  |  | 5.58% (inactive)
CCC(=O)Nc1c(-c2ccc(OC)cc2)c(=O)c2ccccc2n1C |  |  | 6.09% (inactive)
CCOC(=O)C1CCCN(c2ncnc3c2cnn3-c2ccc(Cl)cc2)C1 (configuration not stated) |  |  | 38.5% (inactive)
Cc1ccc(C(C)n2cc(C(=O)NCCN3CCN(C)CC3)nn2)cc1 (configuration not stated) |  |  | 22.4% (inactive)
COCCN1CN(S(=O)(=O)c2ccccc2)c2nc3ccccc3nc21 |  |  | 2.89% (inactive)
CCOc1cc(-c2nn3cnnc3s2)cc(OCC)c1OCC |  |  | 4.31% (inactive)
COCc1cc(C)nc(OCC(=O)N/N=C/c2ccc(-c3cc([N+](=O)[O-])ccc3C)o2)c1C#N |  |  | 19% (inactive)
COc1ccc2nc(SCc3nc(N)nc(Nc4ccccc4)n3)[nH]c2c1 |  |  | 6.2% (inactive)
O=S(=O)(Nc1ccccn1)c1ccc(Cl)c2ccccc12 |  |  | 9.42% (inactive)
CCOc1ccc(-n2nc(C(=O)N3CCN(CC)CC3)c3ccccc3c2=O)cc1 |  |  | 18.4% (inactive)
O=c1ccc2ccc(OCc3nnc(-c4ccccc4Br)o3)cc2o1 |  |  | 2.48% (inactive)
CCC(=O)N1CCc2cc(Br)cc(S(=O)(=O)NCc3ccco3)c21 |  |  | 0.76% (inactive)
CC(C)Cn1c(-c2cccs2)nc2ccccc21 |  |  | 25.7% (inactive)
Cc1ccc(/C([O-])=C(/C(=S)NCc2ccccc2)[n+]2cccc(CO)c2)cc1[N+](=O)[O-] |  |  | -5.81% (inactive)
